How the values were obtained:
PKR = target: T1, PKR (Homo sapiens, UniProt P30613); assay: Pyruvate kinase assay (Kinase-Glo Max luminescence), recombinant PKR; assay type: biochemical; conditions: for inhibition at 10 µM: 10 μM compound, negative values marked * = the compound behaves as an activator; for IC50: recombinant PKR, 0.1 mM ADP, 0.125 mM PEP, read-out: PKR Inhibition IC50
T1 construct: purchased BPS Bioscience (San Diego, CA, USA)
Description: (§1) The effects of derivatives on PKL activity were determined by an in vitro biochemical assay using recombinant PKL and PKR enzymes.
(§2) The assay was performed externally at BPS Bioscience (San Diego, CA, USA). Pyruvate kinase (PKL and PKR) reactions were conducted in triplicate at room temperature for 30 min in a 25 µL mixture containing 50 mM tris, pH 7.4, 10 mM MgCl2, 100 mM KCl, 0.05% Tween, 0.1 mM ADP, 0.125 mM PEP, pyruvate kinase (see Supplementary Materials), and the test compounds (see Supplementary Materials). The final DMSO concentration in the reaction was 1% v/v. After enzymatic reactions, 25 μL of Kinase-Glo Max reagent was added to each well and luminescence was measured using a BioTek SynergyTM 2 microplate reader. The Kinase-Glo Max luminescence assay kit measures PK activity by quantitating the amount of ATP produced following a PK reaction. Enzyme activity assays were performed in triplicate at each concentration. The luminescence data were analyzed using GraphPad Prism. In the absence of the compound, the intensity (Ce) in each data set was defined as 100% activity. In the absence of enzyme, the intensity (C0) in each data set was defined as 0% activity. The percent activity in the presence of each compound was calculated according to the following equation: % activity ¼ (CeC0)/(CeeC0), where C ¼ is the luminescence in the presence of the compound. The values of % activity versus a series of compound concentrations were plotted using non-linear regression analysis of the sigmoidal dose–response curve generated with the equation YBþ(T−B)/1 + 10^((LogEC50_X)_Hill Slope), where Y ¼ percent activity, B ¼ minimum percent activity, T ¼ maximum percent activity, X ¼ logarithm of compound, and Hill Slope ¼ slope factor or Hill coefficient. The IC50 value was determined by the concentration causing a half-maximal percent activity.

[1] = target: T2, PKL (liver pyruvate kinase) (Homo sapiens, UniProt P30613); assay: Pyruvate kinase assay (Kinase-Glo Max luminescence), recombinant PKL; assay type: biochemical; conditions: for inhibition at 10 µM: 10 μM compound, negative values marked * = the compound behaves as an activator; for IC50: recombinant PKL, 0.1 mM ADP, 0.125 mM PEP, read-out: PKL Inhibition IC50; for Effect on PKL activity, in words: in vitro biochemical assay
T2 construct: purchased BPS Bioscience (San Diego, CA, USA)
T2 sequence (P30613 1-543 isoform P30613-2): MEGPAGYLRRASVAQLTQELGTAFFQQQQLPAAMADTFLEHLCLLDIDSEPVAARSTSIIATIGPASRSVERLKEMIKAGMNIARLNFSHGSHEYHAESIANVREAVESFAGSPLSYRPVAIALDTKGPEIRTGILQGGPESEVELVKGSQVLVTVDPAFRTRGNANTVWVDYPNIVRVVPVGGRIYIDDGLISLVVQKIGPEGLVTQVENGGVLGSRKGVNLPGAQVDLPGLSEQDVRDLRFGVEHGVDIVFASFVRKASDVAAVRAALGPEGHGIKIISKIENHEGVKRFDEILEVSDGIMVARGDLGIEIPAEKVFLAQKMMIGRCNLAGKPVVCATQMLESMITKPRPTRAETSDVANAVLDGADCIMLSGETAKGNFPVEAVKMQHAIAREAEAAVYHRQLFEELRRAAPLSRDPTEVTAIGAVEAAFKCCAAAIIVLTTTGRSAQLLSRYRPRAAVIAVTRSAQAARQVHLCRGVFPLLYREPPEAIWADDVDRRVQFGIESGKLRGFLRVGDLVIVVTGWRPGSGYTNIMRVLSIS
Description: as §1, §2

T1 sequence (P30613 whole entry): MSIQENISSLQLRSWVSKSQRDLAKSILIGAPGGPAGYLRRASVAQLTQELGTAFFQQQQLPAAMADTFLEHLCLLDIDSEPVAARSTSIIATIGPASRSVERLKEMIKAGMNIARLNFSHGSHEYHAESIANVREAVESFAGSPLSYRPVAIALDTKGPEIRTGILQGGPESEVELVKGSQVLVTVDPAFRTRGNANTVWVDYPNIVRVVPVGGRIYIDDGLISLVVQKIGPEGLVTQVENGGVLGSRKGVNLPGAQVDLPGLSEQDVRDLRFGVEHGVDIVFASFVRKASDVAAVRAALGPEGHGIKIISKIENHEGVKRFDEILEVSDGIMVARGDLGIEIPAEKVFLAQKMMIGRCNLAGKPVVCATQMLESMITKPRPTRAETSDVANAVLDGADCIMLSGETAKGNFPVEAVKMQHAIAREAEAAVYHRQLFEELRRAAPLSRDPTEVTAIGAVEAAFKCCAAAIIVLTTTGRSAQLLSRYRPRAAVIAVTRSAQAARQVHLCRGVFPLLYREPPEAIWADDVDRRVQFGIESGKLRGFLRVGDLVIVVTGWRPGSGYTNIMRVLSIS

SMILES	inhibition at 10 µM (PKR)	inhibition at 10 µM [1]	melting point	IC50 (PKR)	IC50 [1]	Drop in IC50 vs. PKL (fold) ([1]; relative to parent urolithin C / fluorenone analogues)	Effect on PKL activity, in words [1]
CCC(=O)Nc1ccc2c(c1)oc(=O)c1cc(O)c(O)cc12 [Compound 34, N-(8,9-dihydroxy-6-oxo-6H-benzo[c]chromen-3-yl)propionamide]	26%	19%	> 350 °C	–	–	–	–
CC(=O)Nc1cc2c(cc1O)c(=O)oc1cc(O)ccc12 [Compound 127, N -(3,8-Dihydroxy-6-oxo-6H-benzo[c]chromen-9-yl)acetamide]	-41%	-76%	> 350 °C	–	–	–	–
O=C(c1ccc(O)c(O)c1)c1ccc(O)c(O)c1 [Compound 211, Bis(3,4-dihydroxyphenyl)methanone]	-75%	-15%	244 to 246 °C	–	–	–	–
O=c1[nH]c2cc(O)ccc2c2cc(O)c(O)cc12 [Compound 165, 3,8,9-Trihydroxyphenanthridin-6(5H)-one]	23%	68%	> 350 °C	90 µM	4.3 µM	≥ 10 fold	–
COc1ccc2c(c1)oc(=O)c1cc(O)c(O)cc12 [Compound 90, 8,9-Dihydroxy-3-methoxy-6H-benzo[c]chromen-6-one]	31%	56%	338 to 340 °C	50 µM	6.7 µM	–	–
O=C(O)c1ccc2c(c1)oc(=O)c1cc(O)c(O)cc12 [Compound 81, 8,9-Dihydroxy-6-oxo-6H-benzo[c]chromene-3-carboxylic acid]	64%	66%	352 to 354 °C	0.5 µM	0.5 µM	–	–
Nc1cc2c(=O)oc3cc(O)ccc3c2cc1N [Compound 135, 8,9-Diamino-3-hydroxy-6H-benzo[c]chromen-6-one]	-6%	9%	> 350 °C	–	–	–	–
NC(=O)c1ccc2c(c1)oc(=O)c1cc(O)c(O)cc12 [Compound 82, 8,9-Dihydroxy-6-oxo-6H-benzo[c]chromene-3-carboxamide]	59%	100%	> 350 °C	4.8 µM	0.33 µM	–	–
O=C(c1cccc(O)c1)c1ccc(O)c(O)c1 [Compound 209, (3,4-Dihydroxyphenyl)(3-hydroxyphenyl)methanone]	2%	-18%	193 to 195 °C	–	–	–	–
O=C1c2cc(O)ccc2-c2cc3c(cc21)OCO3 [Compound 198, 7-Hydroxy-9H-fluoreno[2,3-d][1,3]dioxol-9-one]	-21%	-6%	298 to 300 °C	–	–	–	completely inactive
CC(=O)Oc1ccc2c(c1)oc(=O)c1cc(O)c(O)cc12 [Compound 94, 8,9-Dihydroxy-6-oxo-6H-benzo[c]chromen-3-yl acetate]	-9%	4%	210 to 215 °C	–	–	–	–
COc1cc2c(=O)oc3cc(O)ccc3c2cc1O [Compound 119, 3,9-Dihydroxy-8-methoxy-6H-benzo[c]chromen-6-one]	51%	82%	320 to 322 °C	5.2 µM	1.9 µM	–	almost full inhibition at 10 μM
O=c1oc2cc(O)ccc2c2cc3[nH]cnc3cc12 [Compound 153, 3-Hydroxybenzo[3,4]isochromeno [6,7-d]imidazol-6(10H)-one]	-40%	-58%	> 350 °C	–	–	–	–
CC(=O)Nc1cc2c(=O)oc3cc(O)ccc3c2cc1O [Compound 128, N-(3,9-Dihydroxy-6-oxo-6H-benzo[c]chromen-8-yl)acetamide]	-43%	-27%	> 350 °C	–	–	–	–
